In the Biogen ADME set (Fang et al. 2023):
Converted amounts (≈) assume the structure as drawn.

Conditions: for aqueous solubility: pH 6.8

Compound | MDR1-MDCK efflux ratio | intrinsic clearance, human liver microsomes [mL/min/kg] | intrinsic clearance, rat liver microsomes [mL/min/kg] | aqueous solubility [µg/mL] | fraction unbound, human plasma | fraction unbound, rat plasma
CN(Cc1nc(N)c2ccccc2n1)Cc1ccc(F)cc1F | 3.49 | 54 | 1970 | 43.1 (≈ 137 µM) |  | 
N#CCn1ncnc1-c1cccc(C#N)c1 | 0.748 | ≤ 4.74 | 50.8 |  |  | 
NC(=O)C1(CCCc2ccccn2)CCNCC1 |  | ≤ 4.74 | 84.3 | 38.7 (≈ 156 µM) |  | 
Cn1cncc1-c1ncccc1C(=O)N1CCCC1 | 17.3 | ≤ 4.74 | ≤ 10.7 | 54.2 (≈ 211 µM) |  | 
CON(C)C(=O)CCc1c(C)nn(C)c1C | 1.33 | ≤ 4.74 | 28.3 | 34.2 (≈ 152 µM) |  | 
CC1(C)[C@@H]2C[C@H]1[C@@]1(O)[C@@H](C2)Oc2c(ccc(O)c2C(=O)NCCNc2ccccn2)[C@@H]1O | 24.5 | 322 | 2010 |  |  | 
CC1=C(Br)CN(CCc2nc3ccccc3c(=O)[nH]2)CC1 | 0.856 | 133 | 2050 |  |  | 
CN(C)S(=O)(=O)N(C1CCCC1)C1CC1 |  |  |  | 32.6 (≈ 140 µM) |  | 
Cc1ccc(N2CCN(C(=O)c3c(C)nc4sccn34)CC2=O)cc1 | 6.72 | ≤ 4.74 | 32.3 | 61.6 (≈ 174 µM) |  | 
CN(CCCC1CCCC1)Cc1cc(=O)[nH]c(=O)[nH]1 | 0.839 | 7.57 | 165 |  |  | 
Cc1cc(SCc2ccc(Cl)nc2)nc2ccccc12 |  | 327 | 1380 |  |  | 
CC(C)(C)c1nnnn1CC(=O)NC12CC3CC(CC(C3)C1)C2 | 0.776 | 57.4 | 518 | 25.8 (≈ 81.4 µM) |  | 
Cc1noc(-c2ccc(-c3ccc(CC(=O)O)cc3)cc2)c1NC(=O)O[C@H](C)c1ccccc1Cl | 7.69 | ≤ 4.74 | 19.5 | 10.4 (≈ 21.2 µM) |  | 
COCc1cccc(NC(=O)c2cn(C)c3ccccc23)c1 |  |  |  | 3.71 (≈ 12.6 µM) |  | 
CN(C)C(=O)c1sc2nc(C3(C)CCN(c4ncccn4)CC3)ccc2c1N | 1.25 | 32 | 111 | 65.8 (≈ 166 µM) |  | 
CNCc1cc(N(C)C)nc(C2CCCN2C(=O)COC)n1 (stereo not drawn) | 5.05 | ≤ 4.74 | ≤ 10.7 |  |  | 
Cc1noc(CCNc2ncnc3ccccc23)n1 | 0.926 | ≤ 4.74 | 94.4 | 38.2 (≈ 149 µM) |  | 
COc1ccccc1CC(=O)NC1CCN(C)CC1 | 6.13 | ≤ 4.74 | 54.6 | 43.2 (≈ 165 µM) |  | 
Cc1ccc2c(CC(=O)NCc3cccs3)coc2c1 | 0.547 | 122 | 2520 | 6.12 (≈ 21.4 µM) |  | 
COC(=O)N1CCCN(C(=O)c2ccc(-c3ccccc3Cl)o2)CC1 | 0.661 | 174 | 4850 | 58.9 (≈ 162 µM) |  | 

Compound | MDR1-MDCK efflux ratio | intrinsic clearance, human liver microsomes [mL/min/kg] | intrinsic clearance, rat liver microsomes [mL/min/kg] | aqueous solubility [µg/mL] | fraction unbound, human plasma | fraction unbound, rat plasma
Cc1nc2ncc3c(n2n1)CCCC3=O | 0.752 | ≤ 4.74 | ≤ 10.7 |  |  | 
NCc1ccc(Oc2ccccc2)nc1 |  | 20.7 | 50.5 | 22 (≈ 110 µM) |  | 
CCN1CCC(Nc2ncnc3c2cnn3C)CC1 | 4.01 | 63.4 | 21.9 | 32.5 (≈ 125 µM) |  | 
CC(C)c1nc(O)c2nnn(C[C@@H]3CCCN(C(=O)C(C)(C)C)C3)c2n1 | 34.4 | 29.4 | 281 | 43.9 (≈ 122 µM) |  | 
O=C1CC2(CCN(C(=O)NCc3ccccc3)CC2)Oc2ccccc21 | 3.06 | 21.7 | 619 | 4.13 (≈ 11.8 µM) |  | 
CC(C)[C@@H](C(=O)Nc1nc2ccccc2[nH]1)N1Cc2ccccc2C1=O |  | ≤ 4.74 | 262 | 11 (≈ 31.6 µM) |  | 
CCN(Cc1cnn(C(C)C)c1)C(=O)NCCC(C)(C)OC | 17.2 | 5.64 | 163 |  |  | 
CN(CC(=O)NC1(C#N)CCCC1)c1ccccc1 | 0.924 | 20.3 | 498 | 46.5 (≈ 181 µM) |  | 
CN(CCc1ccccc1)C(=O)CC#N | 0.666 | ≤ 4.74 | ≤ 10.7 | 32.5 (≈ 161 µM) |  | 
O=C1N=C(N2CCN(c3ccccc3)CC2)S/C1=C\c1ccc(O)cc1O | 4.26 |  |  | 0.85 (≈ 2.23 µM) |  | 
COCC1(c2nc(-c3ccncc3)nn2Cc2cccc(Cl)c2)CC1 | 0.731 | 341 | 1420 | 28 (≈ 79 µM) |  | 
O=C(Nc1nnc2n1CCCC2)c1cscn1 | 4.14 | ≤ 4.74 | ≤ 10.7 |  |  | 
COCc1nc(C2CCN(CCO)CC2)no1 |  | ≤ 4.74 | 72.4 | 36.1 (≈ 150 µM) |  | 
O=C(NCc1cc(F)cc(F)c1)c1ccccn1 | 0.719 | ≤ 4.74 | 51.6 | 43.4 (≈ 175 µM) |  | 
Cc1cc(C(=O)NCCC2=CSC3=NCCCN23)c2cccc(C)c2n1 | 8.31 | ≤ 4.74 | 291 | 46.1 (≈ 126 µM) |  | 
CCOc1ccc(OCCN2CCN(C(C)=O)CC2)cc1 | 0.671 | ≤ 4.74 | 17.5 |  |  | 
Cc1cnn(Cc2nnc(-c3ccccc3)s2)c1 | 0.554 | 44 | 449 | 22.5 (≈ 87.8 µM) |  | 
Cc1ncsc1C(=O)N1CCCCC1c1nc(N)ncc1-c1cccc(C(F)(F)F)c1 (stereo not drawn) | 9.17 | 373 | 578 | 14.3 (≈ 32 µM) | 0.0412 | 0.0729
CCCn1cc(CNc2ncccn2)cn1 |  | ≤ 4.74 | 56.5 |  |  | 
O=C(NCc1cnn2cccnc12)c1ccccc1-n1cnnc1 | 4.87 | ≤ 4.74 | ≤ 10.7 |  |  | 

Compound | MDR1-MDCK efflux ratio | intrinsic clearance, human liver microsomes [mL/min/kg] | intrinsic clearance, rat liver microsomes [mL/min/kg] | aqueous solubility [µg/mL] | fraction unbound, human plasma | fraction unbound, rat plasma
O=c1c2sccc2nc2n1CCN(Cc1cc(F)ccc1F)CC2 | 0.463 | 121 | 2180 |  |  | 
O=C(Nc1cnn(-c2ncccn2)c1)C1CCCCC1 |  | ≤ 4.74 | 73.1 |  |  | 
CCc1cc(CNC(=O)NC2CCN(CC3CCCCC3)CC2)on1 | 26.6 | ≤ 4.74 | 80.4 |  |  | 
C[C@@H](CN1CCC(n2c(=O)[nH]c3cc(Br)ccc32)CC1)NC(=O)[C@@H]1C[C@H]1c1ccccc1 |  |  | 574 |  |  | 
CCS(=O)(=O)N(C)c1ccc(N(C)C)cc1 | 0.579 | ≤ 4.74 | 2980 |  |  | 
N#Cc1cccc(CN2CCN(CCO)CC2)c1 |  | 6.28 | 126 | 29.3 (≈ 119 µM) |  | 
O=C(CCCc1cc(Cl)sc1Cl)N1CCC(O)CC1 | 0.857 | 52.4 | 741 | 30.1 (≈ 93.4 µM) |  | 
Cc1cc(CN2CCC(N(C)c3ncc(Cl)cn3)CC2)on1 | 0.58 | 16 | 127 |  |  | 
c1ccc(-c2ncc(CNc3ncccn3)s2)nc1 | 0.641 | 40.5 | 2070 |  |  | 
Cc1nn(C)c2nc(-c3ccncc3)cc(C(=O)O)c12 |  | ≤ 4.74 | ≤ 10.7 |  |  | 
Cc1ccc(C(=O)NCC#Cc2ccccc2)cn1 | 0.579 | ≤ 4.74 | 18.8 | 44.5 (≈ 178 µM) |  | 
CCN(C(=O)c1cccc(-n2cccn2)c1)c1ccc(C#N)c(Cl)c1 |  | 79 | 2060 |  |  | 
c1ccc2nc(OC3CCNCC3)cnc2c1 |  | ≤ 4.74 | 183 |  |  | 
CCN(C(=O)N1CCC(CC(=O)N2CCN(C)CC2)CC1)C(C)C | 16.2 | 23.9 | 54.7 | 81.3 (≈ 240 µM) |  | 
COc1ccc(C)nc1-c1ccc(OC)c(OC)c1OC | 0.981 | ≤ 4.74 | 359 |  |  | 
NC[C@@](O)(c1ccc(Cl)cc1)c1ccc(-c2cn[nH]c2)cc1 | 1.61 | ≤ 4.74 | 28 |  |  | 
CC(=O)N1CCC(Cn2ccnc2-c2cc3ccccc3s2)CC1 | 14 | 46.5 | 357 | 35.2 (≈ 104 µM) |  | 
CCN(c1ccccc1)S(=O)(=O)c1ccc(C(F)(F)F)cc1 |  |  |  | 1.4 (≈ 4.25 µM) |  | 
CS(=O)(=O)N1CC(c2n[nH]c3ncccc23)C1 | 1.41 | ≤ 4.74 | ≤ 10.7 | 33.3 (≈ 132 µM) |  | 
CN(Cc1ccc(N)nc1)c1nc2cc(F)ccc2o1 | 33.5 | ≤ 4.74 | 58.1 |  |  | 
